Reference: US20200022967A1, “Use of 2-carboxamide cycloamino urea derivatives in the treatment of EGFR dependent diseases or diseases that have acquired resistance to agents that target EGFR family members” (Novartis AG, priority 2010, published 2020)

How the values were obtained:
HCC1954 = experiment: Cell proliferation in HCC1954 breast cancer model; type: cell-based
[1] = Body weight change in NCI-N87 xenograft mice (Example 2); type: in vivo; details: 50 mg/kg p.o. once daily; not significant
Experimental: Tumor volumes were measured with calipers and determined according to the formula: length×diameter^2×π/6. […] Regressions (%) were calculated according to the formula ((mean tumor volume at end of treatment-mean tumor volume at start of treatment)/mean tumor volume at start of treatment)×100. Body weights and tumor volumes were recorded twice a week.
Where applicable, data is presented as mean±SEM. For all tests, the level of significance was set at p<0.05. For tumor volumes, comparisons between treatment groups and vehicle control group were done using one-way ANOVA followed by Dunnett's test. The level of significance of body weight change within a group between the start and the end of the treatment period was determined using a paired t-test. Comparisons of delta body weights between treatment and vehicle control groups were performed by a one-way ANOVA followed by a post hoc Dunnett's test.

NCI-N87 tumors [2] = experiment: NCI-N87 xenograft in CB17 SCID mice, Compound A alone and with trastuzumab (Example 4); type: in vivo
Experimental: Experiments were performed in female CB17 SCID mice (Fox Chase SCID®, CB17/lcr-Prkdc^scid, Charles River) approximately 7-8 weeks of age and having a body weight (BW) range of 14.7-21.2 g at treatment start. All animals were fed ad libitum water (reverse osmosis, 1 ppm CI) and NIH 31 Modified and Irradiated Lab Diet® consisting of 18.0% crude protein, 5.0% crude fat, and 5.0% crude fiber. The mice were housed on irradiated Enrich-O'cobs™ Laboratory Animal Bedding in static microisolators on a 12-hour light cycle at 21-22° C. and 40-60% humidity.
NCI-N87 cells (obtained from the American Type Culture Collection), which are of gastric origin and ErbB2 amplified, were maintained as exponentially growing cultures in RPMI-1640 medium supplemented with 10% fetal bovine serum, 2 mM glutamine, 100 units/mL penicillin G sodium, and 100 μg/mL streptomycin sulfate. The tumor cells were cultured in tissue culture flasks in a humid incubator at 37° C., in an atmosphere of 5% CO2 and 95% air. Cells were harvested with 1× trypsin and suspended at a concentration of 5×10^7 cells/mL in cold phosphate-buffered saline with 50% Matrigel. Each mouse was injected subcutaneously in the right flank with 1×10^7 cells (0.2 mL cell suspension). Tumor volumes were measured with calipers and determined according to the formula: width^2×length/2, and tumor weight estimated with the assumption that 1 mg is equivalent to 1 mm^3 of tumor volume. Nine days after tumor implantation (on Day 1 of the study), mice with individual tumor volumes of 126-320 mm^3 were sorted into 12 groups of eight mice with a group mean tumor volume of 231-239 mm^3.
Compound A was formulated in NMP/PEG300/Solutol HS15/deionized water (10:30:20:40% vol/vol). The Compound was fully dissolved in NMP. Then, PEG300 and liquified Solutol were added (in sequence with vortexing after addition of each reagent). Water was added prior to administration to the animals. Fresh dosing solutions were prepared weekly and stored at 4° C., protected from light.
Treatments started 9 days post tumor cell implantation and lasted for 30 consecutive days (or until tumor volume=2000 mm^3).
Where applicable, data is presented as mean±SEM. Statisticial and graphical analyses was performed with Prism 3.03 (GraphPad) for Windows. For all tests, the level of significance of differences was done using ANOVA, with Bartlett's test; and a post-hoc Dunnett's multiple comparison test compared the mean change for each drub-treated group to the mean for Group 1. […] The significance of differences between the median volume changes for drug-treated groups and Group 1 was analyzed post hoc with Dunn's multiple comparison test. The two-tailed statistical analyses were conducted at P=0.05. Prism summarizes test results as not significant (ns) at P>0.05, significant (symbolized by “*”) at 0.01<P≤0.05, very significant (symbolized by “**”) at 0.001<P≤0.01, and extremely significant (symbolized by “***”) at P≤0.001.

NCI-N87 tumors [3] = experiment: NCI-N87 xenograft in CB17 SCID mice, Compound A alone and with lapatinib (Example 6); type: in vivo; details: for Median TTE: control 26.2
Experimental: The NCI-N87 cells were harvested with 5× trypsin. Eight days after tumor implantation (on Day 1 of the study), mice with an individual tumor volume of 88-196 mm^3 were sorted into 10 groups of ten mice with a group mean tumor volume of 143-149 mm^3.
Where applicable, data is presented as mean±SEM. Each animal was euthanized when its neoplasm reached the endpoint volume (1000 mm^3), or on the last day of the study (Day 59). Time to endpoint (TTE) is calculated by the equation: TTE=(log10(endpoint volume)−b)/m, where TTE is expressed in days, endpoint volume is in mm3, b is the intercept and m is the slope of the line obtained by linear regression of a log-transformed tumor growth data set. Treatment efficacy was determined from Tumor Growth Delay (TGD), which was defined as the increase in the median time to endpoint (TTE) for a treatment group compared to the control group (TGD=T−C), expressed in days, or as a percentage of the median TTE of the control group (% TGD=((T−C)/C)×100), wherein T=median TTE for a treatment group and C=median TTE for the designated control group.
Statistical and graphical analyses was performed with Prism 3.03 (GraphPad) for Windows. For all tests, the level of significance of differences was done using ANOVA, with Bartlett's test; and a post-hoc Dunnett's multiple comparison test compared the mean change for each drub-treated group to the mean for Group 1. Survival was analyzed by the Kaplan-Meier method. The logrank test was employed to analyze the significance of the difference between the overall survival experiences of two groups, based on time to endpoint (TTE) values. The two-tailed statistical analyses were conducted at P=0.05. Prism summarizes test results as not significant (ns) at P>0.05, significant (symbolized by “*”) at 0.01<P<0.05, very significant (symbolized by “**”) at 0.001<P<0.01, and extremely significant (symbolized by “***”) at P<0.001.

[4] = Group 2 (8 animals): Compound A 12.5 mg/kg p.o. once daily
[5] = Group 3 (6 animals): Compound A 25 mg/kg p.o. once daily
[6] = Group 4 (4 animals): Compound A 50 mg/kg p.o. once daily, stopped early
[7] = Group 2 (9 animals): Compound A 12.5 mg/kg p.o. once daily
[8] = Group 2: Compound A 12.5 mg/kg p.o. once daily
[9] = Group 3 (9 animals): Compound A 25 mg/kg p.o. once daily
[10] = Group 3: Compound A 25 mg/kg p.o. once daily

## Cc1nc(NC(=O)N2CCC[C@H]2C(N)=O)sc1-c1ccnc(C(C)(C)C(F)(F)F)c1 [Compound A, (S)-Pyrrolidine-1,2-dicarboxylic acid 2-amide 1-({4-methyl-5-[2-(2,2,2-trifluoro-1,1-dimethyl-ethyl)-pyridin-4-yl]-thiazol-2-yl}-amide)]
HCC1954; HCC1954, overexpressed ErbB2
  cell death: induces cell death
HCC1954; HCC1954 breast cancer model, read-out: median GI50
  GI50: 687 ± 132 nM
[1]
  mean change of body weight: 3.8±2.1%
NCI-N87 tumors [2]; [4]
  Regressions CR (complete regression): CR: 0
  Regressions PR (partial regression): PR: 0,
NCI-N87 tumors [2]; Group 2 (8 animals): Compound A 12.5 mg/kg p.o. once daily, vs G1 ns
  T/C or T/T0: 46%
NCI-N87 tumors [2]; [5]
  Regressions CR (complete regression): CR: 0
  Regressions PR (partial regression): PR: 0,
NCI-N87 tumors [2]; Group 3 (6 animals): Compound A 25 mg/kg p.o. once daily, vs G1 *
  T/C or T/T0: 12%
NCI-N87 tumors [2]; [6]
  Regressions CR (complete regression): CR: 0
  Regressions PR (partial regression): PR: 0,
NCI-N87 tumors [2]; Group 4 (4 animals): Compound A 50 mg/kg p.o. once daily, stopped early, vs G1 ne
  T/C or T/T0: 81%
NCI-N87 tumors [3]; [7]
  Regressions CR: CR: 0
  Regressions PR: PR: 0,
NCI-N87 tumors [3]; Group 2 (9 animals): Compound A 12.5 mg/kg p.o. once daily, vs G1 ns
  Median TTE: 30.4 days
NCI-N87 tumors [3]; [8]
  % TGD: 16%
  T-C: 4.2 days
NCI-N87 tumors [3]; [9]
  Regressions CR: CR: 0
  Regressions PR: PR: 0,
NCI-N87 tumors [3]; Group 3 (9 animals): Compound A 25 mg/kg p.o. once daily, vs G1 *
  Median TTE: 43.5 days
NCI-N87 tumors [3]; [10]
  % TGD: 16%
  T-C: 17.3 days
